# Data taken from patent US11806359B2 (priority 2020, dated 2023).
# Tests used:
# [1] = tested on: SARS-CoV-2; assay: SARS-CoV-2 viral titer and infectivity of progeny virions in Vero cells (Example 28); type: cell-based; details: for reduction in virus load: oleandrin pretreatment
# Protocol: Further proof of the efficacy of oleandrin (oleandrin-containing composition) against coronavirus, e.g. SARS-CoV-2 (COVID-19), was obtained through in vitro evaluation according to Example 28, wherein Vero cells were pretreated with oleandrin and then infected with SARS-CoV-2. Following infection of the cells, the extracellular virus and oleandrin was washed away, and the infected cells were then treated with oleandrin (FIG. 23A: 1 microg/mL in 0.1% v/v aqueous DMSO; FIG. 23C: 0.1 microg/mL in 0.01% v/v aqueous DMSO) or just aqueous DMSO as control vehicle (FIG. 23B: 0.1% v/v aqueous DMSO; FIG. 23D: 0.01% v/v aqueous DMSO). […] The results further indicate that oleandrin inhibits infectivity of progeny virus by a) about 1 log10 without continuous drug treatment; and b) about >3 log10 with continuous drug treatments (without toxicity).
# A stock solution of oleandrin in methanol (10 mg oleandrin/mL) was prepared. The stock solution was used to prepare incubation media containing DMSO (0.1% or 0.01% v/v in aqueous culture medium RPMI 1640 and oleandrin (20 microg/mL, 10 microg/mL, 1.0 microg/mL, or 0.1 microg/mL). The incubation solutions are as follows.
# Uninfected Vero cells (target initial cell count 1×10^6) in culture were incubated in each of the indicated incubation media in vials for 30 min at 37° C. A viral inoculate of SARS-CoV-2 was then added to each vial to achieve a target initial viral titer (about PFU/mL 1×10^4). The target MOI (multiplicity of infection) of about 0.1. The solutions were incubated for an additional 2 h at 37° C. to achieve infection of the Vero cells. The infected Vero cells were then washed with control vehicle to remove extracellular virus and oleandrin. New aliquots of each incubation medium were added to each respective vial of infected Vero cells. Those receiving oleandrin in the second aliquot were denoted as “+ treatment Post-infection”, and those not receiving oleandrin in the second aliquot were denoted as “− treatment Post-infection” (FIGS. 23A-23D). The viral titer for each vial was determined at about 24 h and about 48 h after infection.
# The data acquired included quantity of virus produced, infectivity of progeny virus, and relative safety (nontoxicity) of oleandrin in infected and uninfected cells.
# [2] = tested on: HIV-1; details: cited from earlier work
# [3] = tested on: HTLV-1; assay: Infectivity of HTLV-1 particles from treated SLB1 cells on primary huPBMCs, p19Gag ELISA; type: cell-based, human T-cell leukemia virus type-1; details: even the lowest concentration (10 μg/ml); relative to vehicle control
# [4] = tested on: adenovirus; assay: Antiviral activity against adenovirus; type: cell-based
# [5] = tested on: Marburgvirus (MARV/Ci67); type: cell-based; details: based on the oleandrin content; final concentration of compositions 20 microg/mL
# [6] = tested on: HTLV-1; assay: Virological synapse formation and HTLV-1 transmission, SLB1/pLenti-GFP with huPBMCs, fluorescence microscopy; type: cell-based, human T-cell leukemia virus type-1; details: in vitro co-culture
# [7] = tested on: Vero cells
# [8] = tested on: HTLV-1; assay: HTLV-1 transmission in SLB1/huPBMC co-culture, p19Gag ELISA (Example 22); type: cell-based, human T-cell leukemia virus type-1; details: 15 min or 3 hrs pre-treatment, 72 hrs co-culture
# [9] = tested on: SARS-CoV-2; assay: microbe, parasite or virus in culture; type: cell-based
# [10] = tested on: SARS-CoV-2; assay: SARS-CoV-2 treatment post-infection in VERO CCL-81 cells, viral titer (Example 34); type: cell-based; details: treated at 12 h and 24 h post-infection, no pretreatment
smiles,measurement,setting,value
CO[C@H]1C[C@H](O[C@H]2CC[C@@]3(C)[C@H](CC[C@@H]4[C@@H]3CC[C@]3(C)[C@@H](C5=CC(=O)OC5)[C@@H](OC(C)=O)C[C@]43O)C2)O[C@@H](C)[C@@H]1O [oleandrin],reduction of initial viral infection,[1]; just 30 min preincubation of Vero cells,only slightly effective
same,reduction in virus load,[1]; 24-h time,1368 fold
same,reduction in virus load,[1]; 48-h time point,369 fold
same,inhibition of infectivity of progeny virus,[1]; with continuous drug treatments (without toxicity),> 3 log10
same,inhibition of infectivity of progeny virus,[1]; without continuous drug treatment,about 1 log10
same,anti-viral activity against HIV-1,[2],anti-HIV activity
same,infectivity of newly-synthesized p19Gag-containing virus particles,[3],inhibited the infectivity
same,activity against adenovirus,[4],insufficiently active
same,efficacy against Marburgvirus,[5],efficacious
same,formation of virological synapses and transmission of HTLV-1,[6],inhibited the formation of virological synapses and the transmission of HTLV-1
same,toxicity to Vero cells,[7],not overly toxic
same,transmission of HTLV-1 in co-culture,[8],inhibited the transmission of HTLV-1
same,concentrations with substantial antiviral activity,[9],above 0.01 microg/mL
same,effect on titer,[9],significant reduction in titer
same,effect on titer compared to DMSO control,[9],no significant effect
same,viral titer,[9],substantial reduction in viral titer
same,viral titer at the two higher doses,[9],essentially to or below the limit of detection
same,EC50,"[9]; Severe acute respiratory syndrome coronavirus 2, 24 h",12 ng/mL
same,EC50,"[9]; Severe acute respiratory syndrome coronavirus 2, 48 h",7.07 ng/mL
same,antiviral activity post infection with a single treatment,[10],able to exert antiviral activity
